Measured values: patent US20230142077A1, “COMPOSITION FOR PROMOTING ANGIOGENESIS USING LIQUID TYPE PLASMA AND METHOD FOR PROMOTING ANGIOGENESIS USING SAME” (AJOU UNIVERSITY INDUSTRY-ACADEMIC COOPERATION FOUNDATION, priority 2021, published 2023)

How the values were obtained:
Type in all cases: cell-based, Human
[1] = test system: intracellular nitric oxide (NO) in HUVECs; test: Intracellular NO production analysis (DAF-FM probe); conditions: L-NMMA (10 μM) with NTS, FIG. 6B
Description: Nitric oxide (NO) levels were confirmed by measuring fluorescence changes in 4-amino-5-methylamino-2′,7′-difluorofluorescein diacetate (DAF-FMDA, Thermo Fisher, D23844, Eugene, Oreg., USA) due to oxidation, respectively. Cells were cultured with reagents according to the manufacturer's instructions. Changes in DAF-FM fluorescence were measured by flow cytometry (BD Biosciences) and a fluorescence microscope (EVOS FL Auto, Thermo Fisher) after 24 hours. NG-methyl-L-arginine acetate salt (L-NMMA, Sigma, M7033) was used to suppress the production of nitric oxide (NO).

HUVEC tube formation = test: Tube formation analysis on Matrigel; conditions: L-NMMA (10 μM) with NTS, FIG. 6C
Description: HUVEC cells were trypsinized and then seeded onto a 96-well plate (2×10^4/well) pre-coated with 40 μl (10 mg/ml) of growth factor-reduced Matrigel (BD Biosciences, Billerica, Mass.) in an EBM2 medium.
After incubation at 37° C. for 30 minutes, 1 hour, 3 hours, and 6 hours, viable cells were detected by staining with Calcein AM (Trevigen, Gaithersburg, Md.), and then a capillary-like structure was imaged using EVOS FL Auto (ThermoFisher). Data in the images was quantified with National Institutes of Health (NIH) ImageJ 1.41q software.

eNOS (S1177) = test: Western blot, phosphorylated eNOS; conditions: FIG. 6A
Description: Western blot was performed using a known method. Cells were lysed in a RIPA buffer (Sigma Aldrich) including 150 mM NaCl, 1.0% Nonidet-P 40, 0.5% sodium deoxycholate, 0.1% sodium dodecyl sulfate, 50 mM Tri (pH 8.0), a protease inhibitor cocktail and PhoSTOP (Roche Molecular Biochemicals, Basel, Switzerland).
A primary antibody used in the present experiment was purchased from Cell Signaling (Danvers, Mass., USA) and VE-cadherin, p-LKB1, and LKB1 were purchased from Santa Cruz (Cambridge, UK). A secondary antibody (anti-rabbit IgG or anti-mouse IgG, 1:2000) was purchased from Cell Signaling Technology.
Data in the images was quantified with National Institutes of Health (NIH) ImageJ 1.41q software.

MMP-2 = test: Gelatin zymogram analysis; conditions: L-NMMA with NTS, FIG. 6F
Description: Matrix metalloproteases were analyzed using a known gelatin zymography method. The cells according to Example 2-1 were cultured in a 6-well plate (Corning Scientific, Rochester, N.Y., USA) and treated with NTS (60 sec/ml) or a vehicle control. Thereafter, the supernatant (100 μl) of each sample was mixed with 1 μl of 100 mM 4-aminophenylmercuric acetate (Sigma-Aldrich), and the sample was incubated at 37° C. for 1 hour. After each sample was placed in a sample buffer (excluding 2-mercaptoethanol) for 10 minutes, the samples were electrophoresed on an a 8% polyacrylamide gel containing 1% gelatin.
The gel was incubated at room temperature for 60 minutes in a regeneration buffer, and then incubated in 100 ml of a development buffer at 37° C. with gentle shaking. Thereafter, the gel was stained with Coomassie Brilliant Blue for 3 hours. After destaining with 400 ml of a destaining solution (methanol, 100 ml of acetic acid, 500 ml of distilled water), images were obtained using an image analyzer.

VE-cadherin = test: Immunocytochemical analysis, VE-cadherin; conditions: NTS+L-NMMA, FIG. 6G
Description: Immunocytochemical analysis was performed using a known method. The cells cultured according to Example 2-1 were additionally cultured on coverslips (Thermo Fisher Scientific, Rochester, N.Y., USA) and treated with NTS (60 sec/ml) or a vehicle control.
The coverslips were then treated with polyclonal rabbit anti-LC3B, p-FAK, and VE-Cadherin (1:200; Cell Signaling Technology, Danvers, Mass., USA), incubated for 2 hours, washed with PBS, and then incubated with an Alexa 488-labeled antibody for 1 hour.
Thereafter, after being washed three times with PBS, the slides were stained with Hoechst 33258 (Molecular Probe), and phalloidin (1:50; Molecular Probes, R415) was added thereto for 15 minutes to counterstain nuclei and F-actin. The stained coverslips were washed with PBS, mounted with Vectashield (Vector Laboratories, Inc., Burlingame, Calif., USA), and then analyzed using EVOS FL Auto (Thermo Fisher).

CC(=O)O.CNC(=N)NCCC[C@H](N)C(=O)O [L-NMMA, NG-methyl-L-arginine acetate salt]
intracellular nitric oxide by NTS [1]: significantly reduced | tubular network formed by NTS (HUVEC tube formation): significantly disrupted | p-eNOS phosphorylation by NTS (eNOS (S1177); L-NMMA (10 μM) with NTS): significantly reduced | phosphorylation of eNOS upregulated by NTS (eNOS (S1177); L-NMMA, 1 mM): significantly attenuated | NTS-activated MMP2 (MMP-2): significantly attenuated | NTS-induced reduction of VE-cadherin expression (VE-cadherin): significantly attenuated
